Entries after “also recorded” stand apart in the source; their conditions may differ.
What was measured:
PDZ1/2 domain [1] = target: T1, PDZ1/2 domain (Homo sapiens, UniProt P78352)
PDZ1/2 domain [2] = target: T1, PDZ1/2 domain; conditions: His beads, SDS-PAGE of eluate, FIG. 1
PC12 cells = conditions: 5 μM, 24 hours

T1 sequence (P78352 61-249 limits assumed): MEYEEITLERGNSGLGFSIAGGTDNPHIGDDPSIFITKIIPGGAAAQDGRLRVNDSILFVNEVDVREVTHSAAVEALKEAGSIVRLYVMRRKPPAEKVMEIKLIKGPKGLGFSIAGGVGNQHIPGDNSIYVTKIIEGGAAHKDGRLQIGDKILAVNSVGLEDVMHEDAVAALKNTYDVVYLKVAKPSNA

| Structure (SMILES) | interaction with the PDZ1/2 domain as compared with control chimeric peptide NA-1 (PDZ1/2 domain [1]) | binding to PDZ1/2 domain in pull-down assay (PDZ1/2 domain [2]) | cytotoxicity (cell viability) (PC12 cells) |
| --- | --- | --- | --- |
| CC[C@H](C)[C@H](NC(=O)[C@H](CCC(=O)O)NC(=O)[C@@H](NC(=O)[C@H](CC(=O)O)NC(=O)[C@H](CC(C)C)NC(=O)[C@H](CC(C)C)NC(=O)[C@H](CCCCN)NC(=O)[C@H](CCC(=O)O)NC(=O)[C@H](Cc1ccc(O)cc1)NC(=O)[C@H](CCCNC(=N)N)NC(=O)[C@H](CCCNC(=N)N)NC(=O)[C@H](CCCNC(=N)N)NC(=O)[C@H](CCC(N)=O)NC(=O)[C@H](CCCNC(=N)N)NC(=O)[C@H](CCCNC(=N)N)NC(=O)[C@H](CCCCN)NC(=O)[C@H](CCCCN)NC(=O)[C@H](CCCNC(=N)N)NC(=O)CNC(=O)[C@@H](N)Cc1ccc(O)cc1)[C@@H](C)O)C(=O)O [P5] | interacted more strongly | can bind to the PDZ1/2 domain; also recorded: capable of binding to PDZ1/2 domain | – |
| CC[C@H](C)[C@H](NC(=O)[C@H](CCC(=O)O)NC(=O)[C@@H](NC(=O)[C@H](CC(=O)O)NC(=O)[C@H](CC(C)C)NC(=O)[C@H](CC(C)C)NC(=O)[C@H](CCCCN)NC(=O)[C@H](CCC(=O)O)NC(=O)[C@H](Cc1ccc(O)cc1)NC(=O)[C@H](CCCNC(=N)N)NC(=O)[C@H](CCCNC(=N)N)NC(=O)[C@H](CCCNC(=N)N)NC(=O)[C@H](CCC(N)=O)NC(=O)[C@H](CCCNC(=N)N)NC(=O)[C@H](CCCNC(=N)N)NC(=O)[C@H](CCCCN)NC(=O)[C@H](CCCCN)NC(=O)[C@H](CCCNC(=N)N)NC(=O)CNC(=O)[C@@H](N)Cc1ccc(O)cc1)[C@@H](C)O)C(=O)O [P5-Ac] | – | – | no significant cytotoxicity |
